Experimental data published in US20100069254A1, “Cell Culture Model for Demyelination/Remyelination” (priority 2008, published 2010).
Entries after “also recorded” stand apart in the source; their conditions may differ.

Assays:
Xenopus tadpoles = conditions: 0.1 to 0.2 μg/ml in tadpole bins; cited from earlier work
[1] = test system: oligodendrocytes and neurons; assay: MTS metabolic activity assay (CellTiter 96 AQueous One) of demyelinated cell cultures
Method: Metabolic activity of cells was then measured by an MTS assay as described in the text.
Monitoring of metabolic activity (CellTiter 96® AQueous One; Promega) is used to identify concentrations that caused a minimum amount of damage to the oligodendrocytes and neurons. In this assay a tetrazolium compound (MTS) and an electron coupling reagent (phenazine ethosulfate) are used for calorimetric detection of metabolic activity. MTS is bioreduced, presumably by NADPH or NADH, into a colored formazan product that is soluble in tissue culture medium and can be detected spectrophotometrically. Absorbance at about […] is proportional to metabolic activity and is commonly used to monitor the number of living cells in culture.

animals = conditions: injection of 2 μl of a 1% solution; cited from earlier work

| Molecule | demyelination in Xenopus tadpoles (Xenopus tadpoles) | effect on cellular metabolism / damage to neural or glial cell bodies (metabolic assay) ([1]; 10 μg/ml, 10 minute exposure) | cellular damage (metabolic assay) ([1]; relatively low concentrations (0.1%), 10 minutes) | local demyelination in animals (animals) |
| --- | --- | --- | --- | --- |
| Oc1c(Cl)cc(Cl)c(Cl)c1Cc1c(O)c(Cl)cc(Cl)c1Cl [hexachlorophene] | cause demyelination | without an observable effect on cellular metabolism; also recorded: mild enough to prevent significant damage to the neural or glial cell bodies |  |  |
| lysophosphatidylcholine |  |  | significant cellular damage | cause local demyelination |
